Laboratory results published in ChEMBL document CHEMBL1201862, “PubChem BioAssay data set” (2004).
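Method: 48-hour compound exposure of cells in 96-well plates, five concentrations, linear interpolation of endpoints. GI50: concentration for 50% inhibition of growth.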 Calls of active or inactive are those of the source. Rule as the data show it: active = GI50 up to about 1.1 µM and inactive = higher.

Experiments:
Assay in all cases: NCI-60 cell line screen, 48 h
A498 = test system: A498
EKVX = test system: EKVX
SN12C = test system: SN12C
OVCAR-8 = test system: OVCAR-8
CCRF-CEM = test system: CCRF-CEM
MDA-N = test system: MDA-N
BT-549 = test system: BT-549
786-0 = test system: 786-0
TK-10 = test system: TK-10
HCT-116 = test system: HCT-116
SK-OV-3 = test system: SK-OV-3
OVCAR-3 = test system: OVCAR-3
LOX IMVI = test system: LOX IMVI
SF-268 = test system: SF-268
A549 = test system: A549
RXF 393 = test system: RXF 393
SNB-19 = test system: SNB-19
NCI/ADR-RES = test system: NCI/ADR-RES
HT-29 = test system: HT-29

Measured: GI50

CC[C@H](C)[C@H](NC(=O)N(CCC#N)CCN(CCN(C(=O)N[C@@H](Cc1ccccc1)C(=O)OC)c1ccccc1)C(=O)N[C@H](C(=O)OC)C(C)C)C(=O)OC
inactive: A498 19.6 µM | EKVX 29.7 µM | SN12C 25.6 µM | OVCAR-8 22.6 µM | CCRF-CEM 22.8 µM | MDA-N 16.5 µM | BT-549 22.9 µM | 786-0 4.68 µM | TK-10 18.3 µM | HCT-116 19.2 µM | SK-OV-3 20.9 µM | OVCAR-3 17.4 µM | LOX IMVI 20.7 µM | SF-268 21.5 µM | A549 32.7 µM | RXF 393 14.2 µM | SNB-19 15.2 µM | NCI/ADR-RES 23.6 µM

COc1cc(/C=C2\C(=O)N(c3cccc(Cl)c3)C(c3ccccc3)S2(=O)=O)cc(OC)c1OC (stereo unspecified)
inactive: A498 > 100 µM | EKVX > 100 µM | SN12C 72.8 µM | OVCAR-8 86.7 µM | CCRF-CEM 18.2 µM | HT-29 > 100 µM | MDA-N 20.8 µM | BT-549 > 100 µM | 786-0 42.2 µM | TK-10 > 100 µM | HCT-116 24.1 µM | SK-OV-3 58.1 µM | OVCAR-3 48.8 µM | LOX IMVI 22.2 µM | SF-268 55.8 µM | A549 70.8 µM | RXF 393 26.2 µM | SNB-19 23.7 µM | NCI/ADR-RES 38.1 µM

O=c1cc(N2CCCC2)[nH]c(=O)n1-c1ccc(F)cc1
inactive: A498 > 100 µM | EKVX > 100 µM | SN12C > 100 µM | OVCAR-8 > 100 µM | CCRF-CEM > 100 µM | HT-29 > 100 µM | MDA-N > 100 µM | BT-549 > 100 µM | 786-0 > 100 µM | TK-10 > 100 µM | HCT-116 > 100 µM | SK-OV-3 > 100 µM | OVCAR-3 > 100 µM | LOX IMVI > 100 µM | SF-268 > 100 µM | A549 > 100 µM | RXF 393 > 100 µM | SNB-19 > 100 µM | NCI/ADR-RES > 100 µM

NS(=O)(=O)c1ccc(NC(=S)N/C=C2\C(=O)Oc3ccccc3C2=O)cc1
inactive: A498 20.5 µM | EKVX 34.1 µM | SN12C 22.5 µM | OVCAR-8 16.2 µM | CCRF-CEM 37.9 µM | HT-29 53.5 µM | MDA-N 34.4 µM | BT-549 34.7 µM | 786-0 40 µM | TK-10 28.2 µM | HCT-116 33.5 µM | SK-OV-3 26.4 µM | OVCAR-3 27.2 µM | LOX IMVI 33.6 µM | SF-268 38.5 µM | A549 43 µM | RXF 393 12.2 µM | SNB-19 19 µM | NCI/ADR-RES 31.4 µM

Cc1cc(-c2ccccc2)nc2oc(=O)n(C)c12
inactive: A498 > 100 µM | EKVX 42.8 µM | SN12C 71.8 µM | OVCAR-8 90.4 µM | CCRF-CEM > 100 µM | HT-29 > 100 µM | MDA-N > 100 µM | BT-549 > 100 µM | 786-0 37.8 µM | TK-10 34.4 µM | HCT-116 75 µM | SK-OV-3 > 100 µM | OVCAR-3 > 100 µM | LOX IMVI > 100 µM | SF-268 > 100 µM | A549 > 100 µM | RXF 393 28.1 µM | SNB-19 > 100 µM | NCI/ADR-RES > 100 µM

O=S(=O)(N1CCCCN(S(=O)(=O)C(F)(F)F)CCCN(S(=O)(=O)C(F)(F)F)CCCN(S(=O)(=O)C(F)(F)F)CCCCN(S(=O)(=O)C(F)(F)F)CCCN(S(=O)(=O)C(F)(F)F)CCC1)C(F)(F)F
inactive: A498 52.6 µM | EKVX 72.3 µM | SN12C 35.8 µM | OVCAR-8 36.4 µM | CCRF-CEM > 100 µM | HT-29 > 100 µM | MDA-N > 100 µM | BT-549 23.7 µM | 786-0 18.2 µM | TK-10 99.5 µM | HCT-116 87.1 µM | SK-OV-3 > 100 µM | OVCAR-3 38.4 µM | LOX IMVI 80.5 µM | SF-268 31.1 µM | A549 > 100 µM | RXF 393 28.6 µM | SNB-19 35.2 µM | NCI/ADR-RES 53.2 µM

C[N+](C)(CCNc1ccc(NCC[N+](C)(C)Cc2ccc([N+](=O)[O-])cc2)c2c1C(=O)c1c(O)ccc(O)c1C2=O)Cc1ccc([N+](=O)[O-])cc1
inactive: A498 > 50 µM | EKVX > 50 µM | SN12C > 50 µM | OVCAR-8 > 50 µM | CCRF-CEM > 50 µM | HT-29 17.7 µM | MDA-N 46.7 µM | BT-549 26.5 µM | 786-0 8.41 µM | TK-10 > 50 µM | HCT-116 9.53 µM | SK-OV-3 > 50 µM | OVCAR-3 > 50 µM | LOX IMVI 4.65 µM | SF-268 > 50 µM | A549 28.2 µM | RXF 393 > 50 µM | NCI/ADR-RES > 50 µM
